According to US10729130B2, “Nematicidal compositions and methods of using them” (Eden Research plc, priority 2004, dated 2020):
Several values for one entry are separate records, joined by “and”; a condition that tells them apart may be missing. Equal entries are not always repeated.

Key:
[1] = tested on: root-knot juveniles; assay: Effect of citral alone and citral and thymol on root-knot nematode juveniles; format: in vivo; conditions: average of 2 replicates
Procedure: This was labelled 2500 ppm and was diluted to provide test solutions at 500, 250, 125 and 62.5 ppm.
This was marked 2500 ppm and diluted to provide test solutions at 500, 250, 125 and 62.5 ppm.
Control—Water was used as the control.
Nematode juveniles were collected in water and 0.1 to 0.15 ml added to each well of a plastic assay plate. 1.0 ml of the test solutions was added to each well. Observations were made microscopically after 24 and 48 hours as described in Example 4. […] Living nematodes move in an undulating, wave-like motion.
The results of two experiments are provided below in Tables 7 and 8.

[2] = tested on: Root Knot nematodes; assay: Nematicidal effects of citral in soil, Root Knot nematodes; format: in vivo, root-knot nematode
Procedure: Methodology: Nematodes used for the analysis originated from commercial agricultural crop soils. Species of nematode included root-knot and citrus. Prior to commencement of each study the nematodes were counted and evaluated for viability. In each experiment soil samples were infected with only one species of nematode. Three measured quantities of soil (250 g) were placed into large PVC plastic containers. Soil moisture was assessed by weighing a soil sample and then drying the sample in a drying oven. Soil moisture content was confirmed using a “Hydroscout” instrument. In all cases the moisture content measured by both methods was within the resolution of the instruments. By determining the water content of the soil it was possible to calculate the volume of terpene solution which would be diluted when mixed with the soil. […] These dilutions were by volume not the more commonly used mass ratios. The reason for using volume dilutions was simply one of convenience enabling the use of a micropipette or cylinder to measure the terpene. The mass ratio of the ‘in soil’ and ‘in water’ solution could be simply calculated by multiplying the ppm of terpene by it's density (0.92 g/ml). The terpene solution was added to each test tube containing a weighed sample of nematode infected soil. The terpene solution and soil were mixed by inverting the test tube several times. […] In each experiment a control group was treated with distilled water. The % mortality (kill) rates in the treatment groups was compared with the control population. The nematodes were extracted by “Sieving & mist extraction” (Ayoub, S. M. 1977) prior to being counted. Criteria for Evaluation: Nematode counts were performed to determine the proportion of nematodes which survived and were killed in each treatment group. […] The results are shown below on Table 17 to 19. The experiment was performed once again, this time with the following changes: • Dose range of 125 ppm-750 ppm was used. • Glass tubes containing 150 g of soil were used as opposed to PVC tubes in previous experiments.

[3] = tested on: root-knot nematodes; assay: Nematicidal activity of citral on root-knot nematodes (selectivity experiment); conditions: 250 ppm
Excerpt: (§1) Living saprophagus nematodes move rapidly in water. The control used was the nematodes in water alone.
(§2) The figures given are for the percentage of nematodes found to be dead upon microscopic examination and are the average of 2 replicates.

[4] = tested on: Saprophagous nematodes; assay: Nematicidal activity of citral on Saprophagous nematodes (selectivity experiment); conditions: 250 ppm
Excerpt: as §1, §2

CC(C)=CCCC(C)=CC=O [Citral, citral]
percentage of nematodes dead ([1]; Table 7 experiment, 125 ppm, 24 h): 100%
percentage of nematodes dead ([1]; Table 7 experiment, 125 ppm, 48 h): 24%
percentage of nematodes dead ([1]; Table 7 experiment, 250 ppm, 24 h): 100%
percentage of nematodes dead ([1]; Table 7 experiment, 250 ppm, 48 h): 91%
percentage of nematodes dead ([1]; Table 7 experiment, 500 ppm, 24 h): 98%
percentage of nematodes dead ([1]; Table 7 experiment, 500 ppm, 48 h): 97%
percentage of nematodes dead ([1]; Table 8 experiment, 62.5 ppm, 24 h): 98%
percentage of nematodes dead ([1]; Table 8 experiment, 125 ppm, 24 h): 94%
percentage of nematodes dead ([1]; Table 8 experiment, 250 ppm, 24 h): 94%
Mean % killed ([2]; first experiment (Table 15), soil, 62.5 ppm, 8 replicates): 18.87%
Mean % killed ([2]; first experiment (Table 15), soil, 125 ppm, 8 replicates): 4.34%
Mean % killed ([2]; first experiment (Table 15), soil, 250 ppm, 8 replicates): 23.66%
Mean % killed ([2]; first experiment (Table 15), soil, 500 ppm, 8 replicates): 67.10%
Mean % killed ([2]; repeated protocol (Table 18), soil, 500 ppm, N 10): 99.6%
Mean % killed ([2]; third experiment (Table 20), glass tubes, 150 g of soil, 125 ppm, N 8): 74.51%
Mean % killed ([2]; third experiment (Table 20), glass tubes, 150 g of soil, 250 ppm, N 8): 97.37%
Mean % killed ([2]; third experiment (Table 20), glass tubes, 150 g of soil, 500 ppm, N 8): 100%
Mean % killed ([2]; third experiment (Table 20), glass tubes, 150 g of soil, 750 ppm, N 8): 99.42%
% dead ([3]; 24 h): 87% and 88%
% dead ([3]; 48 h): 100%
% dead ([4]; 24 h): 43% and 50%
% dead ([4]; 48 h): 50% and 52%
